The numbers were not newly measured in patent US20050148552A1, “Methods of treating eczema” (priority 2003, published 2005), which cites them from elsewhere.

Counter-ions that a name gives are not always drawn.

For data set [1] the following is noted: 250 mg every six hours over a twenty-four hour period.
For data set [2] the following is noted: single dose of two 100 mg minocycline HCl tablets or capsules, adult humans.

Take `CN(C)[C@@H]1C(O)=C(C(N)=O)C(=O)[C@@]2(O)C(O)=C3C(=O)c4c(O)cccc4[C@@](C)(O)[C@H]3C[C@@H]12` [tetracycline HCl]: the peak serum level entry in data set [1] is “approximately 3 μg/ml”.

For `CN(C)c1ccc(O)c2c1C[C@H]1C[C@H]3[C@H](N(C)C)C(O)=C(C(N)=O)C(=O)[C@@]3(O)C(O)=C1C2=O` [minocycline HCl], the “average minocycline serum level” value in data set [2] was 2.24 µg/mL.
